Values belong to the compound of their own block, whether it stands above or below them.
Test system: 282377-053-R-J1-PDC complex spheroid viability
Assay: Anticancer human tumor 282377-053-R-J1-PDC patient-derived colon adenocarcinoma cell line growth inhibition [RAS]
Conditions: for IC50: curve of first compound; for viability, T/C: stronger effect = lower value
Summary of the method: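 Multi-cell-type spheroids: tumor cells plus HUVEC endothelial cells and mesenchymal stem cells. RAS-pathway inhibitors were combined with targeted agents, each dosed in half-log steps down from clinical Cmax, or from 10 microM when Cmax was unknown.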
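Further: spheroids exposed to agents for seven days before readout.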
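Wherever viability, T/C is given: luminescence viability as percent of DMSO vehicle control wells.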

IC50 (second compound 0.000949 µM): > 1000 nM
IC50 (second compound 0.003 µM): > 1000 nM
IC50 (second compound 0.00949 µM): > 1000 nM
IC50 (second compound 0.03 µM): > 1000 nM
IC50 (second compound 0.0949 µM): > 1000 nM
IC50 (second compound 0.3 µM): > 1000 nM
Compound: C=CC(=O)N1CCN(c2nc(OCC3CCCN3C)nc3c(F)c(-c4nc(N)cc(C)c4C(F)(F)F)c(Cl)cc23)C(C)C1 (centres undefined) + CCn1c(-c2cc(N3CCN(C)CC3)cnc2C(C)OC)c2c3cc(ccc31)-c1csc(n1)CC(NC(=O)C1CC1C)C(=O)N1CCCC(N1)C(=O)OCC(C)(C)C2
viability, T/C (second compound 0.000949 µM, first compound 0.00316 µM): 110%
viability, T/C (second compound 0.000949 µM, first compound 0.01 µM): 101%
viability, T/C (second compound 0.000949 µM, first compound 0.0316 µM): 112%
viability, T/C (second compound 0.000949 µM, first compound 0.1 µM): 102%
viability, T/C (second compound 0.000949 µM, first compound 0.316 µM): 129%
viability, T/C (second compound 0.000949 µM, first compound 1 µM): 107%
viability, T/C (second compound 0.003 µM, first compound 0.00316 µM): 108%
viability, T/C (second compound 0.003 µM, first compound 0.01 µM): 120%
viability, T/C (second compound 0.003 µM, first compound 0.0316 µM): 98.4%
viability, T/C (second compound 0.003 µM, first compound 0.1 µM): 115%
viability, T/C (second compound 0.003 µM, first compound 0.316 µM): 73.2%
viability, T/C (second compound 0.003 µM, first compound 1 µM): 143%
viability, T/C (second compound 0.00949 µM, first compound 0.00316 µM): 134%
viability, T/C (second compound 0.00949 µM, first compound 0.01 µM): 97.6%
viability, T/C (second compound 0.00949 µM, first compound 0.0316 µM): 115%
viability, T/C (second compound 0.00949 µM, first compound 0.1 µM): 89.5%
viability, T/C (second compound 0.00949 µM, first compound 0.316 µM): 108%
viability, T/C (second compound 0.00949 µM, first compound 1 µM): 110%
viability, T/C (second compound 0.03 µM, first compound 0.00316 µM): 120%
viability, T/C (second compound 0.03 µM, first compound 0.01 µM): 85.6%
viability, T/C (second compound 0.03 µM, first compound 0.0316 µM): 88.1%
viability, T/C (second compound 0.03 µM, first compound 0.1 µM): 96.6%
viability, T/C (second compound 0.03 µM, first compound 0.316 µM): 93.6%
viability, T/C (second compound 0.03 µM, first compound 1 µM): 107%
viability, T/C (second compound 0.0949 µM, first compound 0.00316 µM): 124%
viability, T/C (second compound 0.0949 µM, first compound 0.01 µM): 113%
viability, T/C (second compound 0.0949 µM, first compound 0.0316 µM): 106%
viability, T/C (second compound 0.0949 µM, first compound 0.1 µM): 119%
viability, T/C (second compound 0.0949 µM, first compound 0.316 µM): 91.8%
viability, T/C (second compound 0.0949 µM, first compound 1 µM): 133%
viability, T/C (second compound 0.3 µM, first compound 0.00316 µM): 113%
viability, T/C (second compound 0.3 µM, first compound 0.01 µM): 93.7%
viability, T/C (second compound 0.3 µM, first compound 0.0316 µM): 134%
viability, T/C (second compound 0.3 µM, first compound 0.1 µM): 120%
viability, T/C (second compound 0.3 µM, first compound 0.316 µM): 104%
viability, T/C (second compound 0.3 µM, first compound 1 µM): 121%

IC50 (second compound 0.000949 µM): > 300 nM
IC50 (second compound 0.003 µM): > 300 nM
IC50 (second compound 0.00949 µM): > 300 nM
IC50 (second compound 0.03 µM): > 300 nM
IC50 (second compound 0.0949 µM): > 300 nM
IC50 (second compound 0.3 µM): > 300 nM
Compound: CC1(C)CCC(Nc2ncc(C(F)(F)F)c(-c3c[nH]c4c(P(C)(C)=O)c(C#N)ccc34)n2)CN1 (centres undefined) + CCn1c(-c2cc(N3CCN(C)CC3)cnc2C(C)OC)c2c3cc(ccc31)-c1csc(n1)CC(NC(=O)C1CC1C)C(=O)N1CCCC(N1)C(=O)OCC(C)(C)C2
viability, T/C (second compound 0.000949 µM, first compound 0.000949 µM): 104%
viability, T/C (second compound 0.000949 µM, first compound 0.003 µM): 123%
viability, T/C (second compound 0.000949 µM, first compound 0.00949 µM): 109%
viability, T/C (second compound 0.000949 µM, first compound 0.03 µM): 104%
viability, T/C (second compound 0.000949 µM, first compound 0.0949 µM): 97.8%
viability, T/C (second compound 0.000949 µM, first compound 0.3 µM): 94.8%
viability, T/C (second compound 0.003 µM, first compound 0.000949 µM): 98.2%
viability, T/C (second compound 0.003 µM, first compound 0.003 µM): 135%
viability, T/C (second compound 0.003 µM, first compound 0.00949 µM): 129%
viability, T/C (second compound 0.003 µM, first compound 0.03 µM): 99.6%
viability, T/C (second compound 0.003 µM, first compound 0.0949 µM): 90.2%
viability, T/C (second compound 0.003 µM, first compound 0.3 µM): 94.9%
viability, T/C (second compound 0.00949 µM, first compound 0.000949 µM): 116%
viability, T/C (second compound 0.00949 µM, first compound 0.003 µM): 96.5%
viability, T/C (second compound 0.00949 µM, first compound 0.00949 µM): 126%
viability, T/C (second compound 0.00949 µM, first compound 0.03 µM): 91.1%
viability, T/C (second compound 0.00949 µM, first compound 0.0949 µM): 92%
viability, T/C (second compound 0.00949 µM, first compound 0.3 µM): 96.3%
viability, T/C (second compound 0.03 µM, first compound 0.000949 µM): 109%
viability, T/C (second compound 0.03 µM, first compound 0.003 µM): 104%
viability, T/C (second compound 0.03 µM, first compound 0.00949 µM): 110%
viability, T/C (second compound 0.03 µM, first compound 0.03 µM): 101%
viability, T/C (second compound 0.03 µM, first compound 0.0949 µM): 96.9%
viability, T/C (second compound 0.03 µM, first compound 0.3 µM): 84.3%
viability, T/C (second compound 0.0949 µM, first compound 0.000949 µM): 107%
viability, T/C (second compound 0.0949 µM, first compound 0.003 µM): 118%
viability, T/C (second compound 0.0949 µM, first compound 0.00949 µM): 124%
viability, T/C (second compound 0.0949 µM, first compound 0.03 µM): 110%
viability, T/C (second compound 0.0949 µM, first compound 0.0949 µM): 119%
viability, T/C (second compound 0.0949 µM, first compound 0.3 µM): 76.7%
viability, T/C (second compound 0.3 µM, first compound 0.000949 µM): 136%
viability, T/C (second compound 0.3 µM, first compound 0.003 µM): 144%
viability, T/C (second compound 0.3 µM, first compound 0.00949 µM): 145%
viability, T/C (second compound 0.3 µM, first compound 0.03 µM): 113%
viability, T/C (second compound 0.3 µM, first compound 0.0949 µM): 108%
viability, T/C (second compound 0.3 µM, first compound 0.3 µM): 88.2%
